Literature values as cited in US6017399A, “Method for controlling and removing solid deposits from a surface of a component of a steam generating system” (priority 1998, dated 2000).
Where two headings read alike, the source gives them in different places.

Molecule | pKa (25° C., Table 4) | pKa (25° C.) | pKa (about 250° C.)
CC(C)CNCC(C)C [Diisobutylamine] | 10.82 |  | 
NCCCCCCCCN [1,8 Diaminooctane] | 10.937 |  | 
C1CCC2=NCCCN2CC1 [1,5-Diazabicyclo (5,4,0) Unde-5-ane] | 13.40 |  | 
Dimethylamino-propylamine | 11.70 |  | 
CCCCNCCCC [Di-N-Butylamine] | 11.31 |  | 
CN [Monomethylamine] | 10.62 |  | 
CN(C)C [Trimethylamine] | 10.71 |  | 
CCCCN [Mono-N-Butylamine] | 10.61 |  | 
CCCN(CCC)CCC [Tri-N-Propylamine] | 10.65 |  | 
CNC [Dimethylamine] | 10.61 | about 10.61 | about 6.50
CCNC1CCCCC1 [N-Ethylcyclohexylamine] | 12.00 |  | 
NCCCCCN [1,5 Diaminopentane] | 10.915 |  | 
NCCCCCCN [1,6 Diaminohexane] | 10.93 |  | 
